From ChEMBL document CHEMBL3885861, “Open TG-GATES”

Organism: Rattus norvegicus
Assay: Open TG-GATES - Regimen: Single
Type: toxicity, organism-based, Sprague-Dawley
Design: regimen Single, gender Male, age 6 weeks
Settings: in vivo, po, route gavage; for gamma-GTP / ALP / ALT / AST / BUN / CRE / Ca / Cl / DBIL / GLC / IP / K / LDH / Na / PL / RALB / TBIL / TC / TG / TP: tissue Plasma; for APTT / Bas / Eos / Fbg / Hb / Ht / Lym / MCH / MCHC / MCV / Mono / Neu / PT / Plat / RBC / Ret: tissue Blood; for KIDNEY_L / KIDNEY_R / KIDNEY_TOTAL: tissue Kidney; for LIVER: tissue Liver
[1] = 300 mg/kg, 3 h, dose level Middle
[2] = 300 mg/kg, 6 h, dose level Middle
[3] = 300 mg/kg, 9 h, dose level Middle
[4] = 300 mg/kg, 24 h, dose level Middle
[5] = 1000 mg/kg, 3 h, dose level High
[6] = 1000 mg/kg, 6 h, dose level High
[7] = 1000 mg/kg, 9 h, dose level High
[8] = 1000 mg/kg, 24 h, dose level High

## COc1ccc2[nH]c([S+]([O-])Cc3ncc(C)c(OC)c3C)nc2c1 (configuration not stated) [OMEPRAZOLE]
100 mg/kg, 24 h, dose level Low
  gamma-GTP: 1.2 IU/L
[1]
  TERMINAL_BW: 223.6 g
  APTT: 18.7 s
  Bas: 0%
  Eos: 1%
  Fbg: 216.4 mg/dL
  Hb: 12.4 g/dL
  Ht: 36.4%
  Lym: 73.2%
  MCH: 21.2 pg
  MCHC: 33.9%
  MCV: 62.3 fL
  Mono: 3.4%
  Neu: 22.2%
  PT: 12.7 s
  Plat: 128.9 x10_4/uL
  RBC: 584.6 x10_4/ul
  Ret: 8.2%
  KIDNEY_L: 1 g
  KIDNEY_R: 1 g
  KIDNEY_TOTAL: 1.9 g
  LIVER: 9.8 g
  ALP: 904.2 IU/L
  ALT: 31.8 IU/L
  AST: 67.2 IU/L
  BUN: 10.2 mg/dL
  CRE: 0.4 mg/dL
  Ca: 10.6 mg/dL
  Cl: 100.6 meq/L
  DBIL: 0.064 mg/dL
  GLC: 194.8 mg/dL
  IP: 9.4 mg/dL
  K: 3.9 meq/L
  LDH: 202 IU/L
  Na: 139.6 meq/L
  PL: 146.4 mg/dL
  RALB: 3.3 g/dL
  TBIL: 0.1 mg/dL
  TC: 80.2 mg/dL
  TG: 70.2 mg/dL
  TP: 5.4 g/dL
  gamma-GTP: 1.6 IU/L
[2]
  TERMINAL_BW: 217.5 g
  APTT: 19 s
  Bas: 0%
  Eos: 1%
  Fbg: 216.4 mg/dL
  Hb: 13.1 g/dL
  Ht: 38.3%
  Lym: 74.4%
  MCH: 21.2 pg
  MCHC: 34.3%
  MCV: 61.8 fL
  Mono: 3.8%
  Neu: 20.6%
  PT: 12.9 s
  Plat: 124 x10_4/uL
  RBC: 620.6 x10_4/ul
  Ret: 6.5%
  KIDNEY_L: 1 g
  KIDNEY_R: 1 g
  KIDNEY_TOTAL: 2 g
  LIVER: 9.4 g
  ALP: 913.6 IU/L
  AST: 66 IU/L
  BUN: 10 mg/dL
  CRE: 0.4 mg/dL
  Ca: 10.3 mg/dL
  Cl: 100.8 meq/L
  DBIL: 0.066 mg/dL
  GLC: 192 mg/dL
  IP: 9.7 mg/dL
  K: 4.1 meq/L
  LDH: 171.2 IU/L
  Na: 140 meq/L
  PL: 145.6 mg/dL
  RALB: 3.3 g/dL
  TBIL: 0.1 mg/dL
  TC: 72.8 mg/dL
  TG: 74.4 mg/dL
  TP: 5.5 g/dL
  gamma-GTP: 1.4 IU/L
[3]
  TERMINAL_BW: 218.4 g
  APTT: 22.1 s
  Bas: 0%
  Eos: 1%
  Fbg: 223.8 mg/dL
  Hb: 12.7 g/dL
  Ht: 37%
  Lym: 76.6%
  MCH: 21.4 pg
  MCHC: 34.3%
  MCV: 62.4 fL
  Mono: 3.2%
  Neu: 18.4%
  PT: 12.9 s
  Plat: 117.1 x10_4/uL
  RBC: 593.4 x10_4/ul
  Ret: 6.7%
  KIDNEY_L: 0.9 g
  KIDNEY_R: 0.9 g
  KIDNEY_TOTAL: 1.9 g
  LIVER: 9.1 g
  ALP: 761.6 IU/L
  ALT: 27.6 IU/L
  AST: 62.8 IU/L
  BUN: 8.2 mg/dL
  CRE: 0.3 mg/dL
  Ca: 10.2 mg/dL
  Cl: 101.4 meq/L
  DBIL: 0.068 mg/dL
  GLC: 195.4 mg/dL
  IP: 9.5 mg/dL
  K: 3.9 meq/L
  LDH: 175.8 IU/L
  Na: 140.8 meq/L
  PL: 133.2 mg/dL
  RALB: 3.4 g/dL
  TBIL: 0.1 mg/dL
  TC: 70.4 mg/dL
  TG: 74 mg/dL
  TP: 5.4 g/dL
  gamma-GTP: 0.8 IU/L
[4]
  TERMINAL_BW: 229.5 g
  APTT: 20.6 s
  Bas: 0%
  Eos: 1%
  Fbg: 230.2 mg/dL
  Hb: 13.5 g/dL
  Ht: 39.6%
  Lym: 81.2%
  MCH: 20.6 pg
  MCHC: 34.1%
  MCV: 60.4 fL
  Mono: 3%
  Neu: 14.6%
  PT: 12.7 s
  Plat: 129 x10_4/uL
  RBC: 654.6 x10_4/ul
  Ret: 6.1%
  KIDNEY_L: 1 g
  KIDNEY_R: 1 g
  KIDNEY_TOTAL: 2 g
  LIVER: 11.8 g
  ALP: 1087 IU/L
  ALT: 35 IU/L
  AST: 65.8 IU/L
  BUN: 15.4 mg/dL
  CRE: 0.4 mg/dL
  Ca: 10.3 mg/dL
  Cl: 101 meq/L
  DBIL: 0.1 mg/dL
  GLC: 205.2 mg/dL
  IP: 9.4 mg/dL
  K: 3.8 meq/L
  LDH: 207 IU/L
  Na: 140.8 meq/L
  PL: 146.4 mg/dL
  RALB: 3.3 g/dL
  TBIL: 0.2 mg/dL
  TC: 72 mg/dL
  TG: 139.4 mg/dL
  TP: 5.5 g/dL
  gamma-GTP: 1 IU/L
[5]
  TERMINAL_BW: 220.8 g
  APTT: 18.6 s
  Bas: 0%
  Eos: 1%
  Fbg: 201.8 mg/dL
  Hb: 12.4 g/dL
  Ht: 36.3%
  Lym: 74.8%
  MCH: 21.2 pg
  MCHC: 34.3%
  MCV: 61.9 fL
  Mono: 3%
  Neu: 21%
  PT: 13.3 s
  Plat: 120.5 x10_4/uL
  RBC: 586.6 x10_4/ul
  Ret: 6.8%
  KIDNEY_L: 1 g
  KIDNEY_R: 1 g
  KIDNEY_TOTAL: 2 g
  LIVER: 9.8 g
  ALP: 966.6 IU/L
  ALT: 31.6 IU/L
  AST: 66 IU/L
  BUN: 11.2 mg/dL
  CRE: 0.4 mg/dL
  Ca: 10.2 mg/dL
  Cl: 100.6 meq/L
  DBIL: 0.072 mg/dL
  GLC: 208.8 mg/dL
  IP: 9.2 mg/dL
  K: 4 meq/L
  LDH: 174.6 IU/L
  Na: 140 meq/L
  PL: 140.8 mg/dL
  RALB: 3.3 g/dL
  TBIL: 0.1 mg/dL
  TC: 73.4 mg/dL
  TG: 56.8 mg/dL
  TP: 5.4 g/dL
  gamma-GTP: 0.8 IU/L
[6]
  TERMINAL_BW: 221 g
  APTT: 19.3 s
  Bas: 0%
  Eos: 1.2%
  Fbg: 208.8 mg/dL
  Hb: 12.9 g/dL
  Ht: 37.2%
  Lym: 70.6%
  MCH: 21.5 pg
  MCHC: 34.9%
  MCV: 61.8 fL
  Mono: 4.4%
  Neu: 23.2%
  PT: 13.2 s
  Plat: 129.9 x10_4/uL
  RBC: 602.4 x10_4/ul
  Ret: 7.1%
  KIDNEY_L: 1 g
  KIDNEY_R: 1.1 g
  KIDNEY_TOTAL: 2.1 g
  LIVER: 9.8 g
  ALP: 940.2 IU/L
  ALT: 27 IU/L
  AST: 65.6 IU/L
  BUN: 10 mg/dL
  CRE: 0.4 mg/dL
  Ca: 10.2 mg/dL
  Cl: 100.8 meq/L
  DBIL: 0.072 mg/dL
  GLC: 192.2 mg/dL
  IP: 9.7 mg/dL
  K: 4 meq/L
  LDH: 178.8 IU/L
  Na: 139.8 meq/L
  PL: 145.8 mg/dL
  RALB: 3.3 g/dL
  TBIL: 0.1 mg/dL
  TC: 78.8 mg/dL
  TG: 57 mg/dL
  TP: 5.5 g/dL
  gamma-GTP: 1.2 IU/L
[7]
  TERMINAL_BW: 219.2 g
  APTT: 18.3 s
  Bas: 0%
  Eos: 1%
  Fbg: 228.6 mg/dL
  Hb: 12.8 g/dL
  Ht: 37.1%
  Lym: 75.8%
  MCH: 21.3 pg
  MCHC: 34.6%
  MCV: 61.4 fL
  Mono: 3.4%
  Neu: 19%
  PT: 12.9 s
  Plat: 120.2 x10_4/uL
  RBC: 603.8 x10_4/ul
  Ret: 6.4%
  KIDNEY_L: 1 g
  KIDNEY_R: 1 g
  KIDNEY_TOTAL: 1.9 g
  LIVER: 9.6 g
  ALP: 705 IU/L
  AST: 62 IU/L
  BUN: 8 mg/dL
  CRE: 0.3 mg/dL
  Ca: 10.2 mg/dL
  Cl: 100.8 meq/L
  DBIL: 0.08 mg/dL
  GLC: 195.2 mg/dL
  IP: 10 mg/dL
  K: 3.8 meq/L
  LDH: 174.4 IU/L
  Na: 141 meq/L
  PL: 153.2 mg/dL
  RALB: 3.5 g/dL
  TBIL: 0.1 mg/dL
  TC: 80.4 mg/dL
  TG: 59.8 mg/dL
  TP: 5.5 g/dL
  gamma-GTP: 0.6 IU/L
[8]
  TERMINAL_BW: 226 g
  APTT: 19.9 s
  Bas: 0%
  Eos: 1%
  Fbg: 207.8 mg/dL
  Hb: 12.9 g/dL
  Ht: 37.7%
  Lym: 81.4%
  MCH: 21 pg
  MCHC: 34.1%
  MCV: 61.6 fL
  Mono: 4%
  Neu: 13.4%
  PT: 13.1 s
  Plat: 129.5 x10_4/uL
  RBC: 613.8 x10_4/ul
  Ret: 6.2%
  KIDNEY_L: 1 g
  KIDNEY_R: 1 g
  KIDNEY_TOTAL: 2.1 g
  LIVER: 12.1 g
  ALP: 924 IU/L
  ALT: 32.6 IU/L
  AST: 64.8 IU/L
  BUN: 11.2 mg/dL
  CRE: 0.4 mg/dL
  Ca: 10.1 mg/dL
  Cl: 100.6 meq/L
  DBIL: 0.1 mg/dL
  GLC: 200.4 mg/dL
  IP: 9.2 mg/dL
  K: 4.2 meq/L
  LDH: 230 IU/L
  Na: 140.6 meq/L
  PL: 162.8 mg/dL
  RALB: 3.4 g/dL
  TBIL: 0.2 mg/dL
  TC: 83.4 mg/dL
  TG: 169.2 mg/dL
  TP: 5.4 g/dL
  gamma-GTP: 1 IU/L
